Data taken from paper PMC6127852 (Journal of Enzyme Inhibition and Medicinal Chemistry, 2018).
In brackets after ≈: the same amount, converted by molar mass.

Key:
A. baumannii ATCC 19606 = experiment: Broth microdilution MIC, A. baumannii ATCC 19606; type: cell-based; conditions: Acinetobacter baumannii, ATCC19606; Table S2
Outline: (§1)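 Read-out is the minimum inhibitory concentration, obtained by broth microdilution following Clinical and Laboratory Standards Institute guidelines, with Mueller–Hinton broth adjusted for Ca^2+ and Mg^2+ as medium.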

P. aeruginosa ESBL = experiment: Broth microdilution MIC, ESBL P. aeruginosa clinical strain; type: cell-based; conditions: Pseudomonas aeruginosa
E. coli ATCC 25925 = experiment: Broth microdilution MIC, E. coli ATCC 25925; type: cell-based; conditions: Escherichia coli, ATCC25925; Table S2
Outline: as §1

S. aureus ATCC 25923 = experiment: Broth microdilution MIC, S. aureus ATCC 25923; type: cell-based; conditions: Staphylococcus aureus, ATCC25923; Table S2
Outline: as §1

polyC-polyG = experiment: UV–Vis titration with polyC-polyG (Scatchard); type: binding; conditions: PBS, pH 7; for log Ks, polyC-polyG: binding constant, Scatchard; for Hypochromic effect H/%, polyC-polyG: UV–Vis titration, calculated by Scatchard equation
Outline: (§2)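 Polynucleotides titrated into compound at 1.48 × 10^−5 mol dm^−3 in PBS (I = 0.05 mol dm^−3, pH 7.0), with UV–Vis spectra in 1 cm quartz cells; ctDNA sonicated and filtered, concentration as nucleobases. Ks and n from Scatchard analysis, in some cases only from data at r ≥ 0.1.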

S. aureus MSSA = experiment: Broth microdilution MIC, MSSA clinical strain; type: cell-based; conditions: Staphylococcus aureus
Outline: (§3)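 MICs were set by CLSI broth microdilution in cation (Ca2+, Mg2+)-adjusted Mueller–Hinton broth, in triplicate. Panel: S. aureus ATCC 25923, MRSA, MSSA, E. faecalis, VRE E. faecium, E. coli ATCC 25925, P. aeruginosa ATCC 27853, A. baumannii ATCC 19606 and ESBL K. pneumoniae ATCC 27736.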

E. faecium VRE = experiment: Broth microdilution MIC, VRE clinical strain; type: cell-based; conditions: Enterococcus faecium
Outline: as §3

polyA-polyU [1] = experiment: UV–Vis titration with polyA-polyU (Scatchard); type: binding; conditions: for Hypochromic effect H/%, polyA-polyU: UV–Vis titration, calculated by Scatchard equation; for Hypochromic effect H/%, polyA-polyU / log Ks, polyA-polyU: PBS, pH 7; for log Ks, polyA-polyU: binding constant, Scatchard
Outline: as §2

[2] = system: polyA-polyU (RNA, polymer) A/U; experiment: UV-Vis titration, Scatchard; conditions: PBS; for log Ks: I = 0.05 M (Table 1 says I = 0.015 M), cations not specified, I = 0.015 M (Methods: 0.05 M), pH 7, per base
K. pneumoniae ESBL = experiment: Broth microdilution MIC, ESBL K. pneumoniae clinical strain; type: cell-based; conditions: Klebsiella pneumoniae
Procedure: (§4) The compounds were evaluated for their in vitro anti-bacterial activity against Gram-positive bacteria: S. aureus (ATCC 25923), MRSA, methicillin-sensitive S. aureus (MSSA), E. faecalis, vancomycin-resistant E. faecium (VREF), and Gram-negative bacteria: E. coli (ATCC 25925), P. aeruginosa (ATCC 27853), A. baumannii (ATCC 19606) and ESBL-producing K. pneumoniae (ATCC 27736). Standard broth microdilution method as recommended in guidelines of Clinical and Laboratory Standards Institute[61] ^, [65] ^, [66] was applied and the minimum inhibitory concentration (MIC) of compounds was tested. In short, testing was performed in U-bottomed 96-well sterile plastic microdilution trays (Falcon 3077, Becton Dickinson Labware, Franklin Lakes, NJ) in cation (Ca^2+ and Mg^2+) adjusted Mueller–Hinton broth medium (Becton Dickinson and Co., Cockeysville, MD). All testings were performed in triplicate.

[3] = system: polyA-polyU (RNA, polymer) A/U; experiment: UV melting at 260 nm; conditions: PBS, I = 0.05 M, cations not specified, pH 7, r = 0.3 [compound]/[polynucleotide]
polyA-polyU [4] = experiment: Thermal melting (ΔTm) of polyA-polyU; type: binding; conditions: for ΔTm, polyA-polyU, r = 0.1: PBS, pH 7; for ΔTm, polyA-polyU, r = 0.3 / ΔTm, polyA-polyU, r = 0.5: first melting midpoint; for ΔTm, polyA-polyU, r = 0.3, second melting midpoint / ΔTm, polyA-polyU, r = 0.5, second melting midpoint: footnote c: biphasic melting curve
Outline: (§5)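 UV melting monitored at 260 nm in 1 cm cuvettes, ligand absorbance subtracted and normalised; ΔTm = Tm(complex) − Tm(free nucleic acid), mean of at least two runs, error ±0.5 °C. Compound tested at r = 0.1, 0.3, 0.5 and 0.7 eq ([compound]/[polynucleotide]) with ctDNA and polyA-polyU.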

P. aeruginosa ATCC 27853 = experiment: Broth microdilution MIC, P. aeruginosa ATCC 27853; type: cell-based; conditions: Pseudomonas aeruginosa, ATCC27853; Table S2
Outline: as §1

[5] = system: polyG-polyC (polyC-polyG) (RNA, polymer) G/C; experiment: UV-Vis titration, Scatchard; conditions: PBS, I = 0.05 M (Table 1 says I = 0.015 M), cations not specified, I = 0.015 M (Methods: 0.05 M)
K. pneumonia ATCC 700803 = experiment: Broth microdilution MIC, K. pneumoniae ATCC 700803; type: cell-based; conditions: Klebsiella pneumoniae, ATCC700803; Table S2
Outline: as §1

S. aureus MRSA = experiment: Broth microdilution MIC, MRSA clinical strain; type: cell-based; conditions: Staphylococcus aureus, antibiotic-resistant clinical strain
Outline: as §3

E. coli ESBL = experiment: Broth microdilution MIC, ESBL E. coli clinical strain; type: cell-based; conditions: Escherichia coli
ctDNA = experiment: Thermal melting (ΔTm) of ctDNA; type: binding, calf; conditions: PBS, pH 7; for ΔTm, ctDNA, r = 0.3: r = [compound]/[polynucleotide] 0.3, error ±0.5 °C
Outline: as §5

[6] = system: bloodstream form T. brucei (strain 221); experiment: Anti-trypanosomal screening, resazurin; type: cell-based; conditions: Trypanosoma brucei, mean of triplicate ± SEM
Outline: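 Parasites grown in modified Iscove's medium with compound in triplicate; resazurin added at 48 h and plates read after a further 16 h.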

E. faecalis ATCC 29212 = experiment: Broth microdilution MIC, E. faecalis ATCC 29212; type: cell-based; conditions: Enterococcus faecalis, ATCC29212; Table S2
Outline: as §1

calf thymus ctDNA = experiment: UV–Vis titration with ctDNA (Scatchard); type: binding; conditions: for Hypochromic effect H/%, ctDNA: calculated by Scatchard equation; for log Ks, ctDNA: binding constant, Scatchard
Outline: as §2

[7] = system: L6 cells (a rat myoblast line); experiment: Cytotoxicity against mammalian cells, resazurin; type: cell-based; conditions: L6, 144 h, 6 d incubation
Procedure: Cytotoxicity against mammalian cells was also assessed using microtitre plates. Briefly, L6 cells (a rat myoblast line) were seeded at 1 × 10^4 ml^−1 in 200 µl of growth medium containing different compound concentrations. The plates were then incubated for 6 d at 37 °C and 20 µl resazurin added to each well. After a further 8 h incubation, the fluorescence was determined using a Spectramax plate reader, as outlined above.

[8] = system: Gram-positive and Gram-negative bacteria; experiment: Anti-microbial activity overall (all tested bacteria); type: cell-based; conditions: summary over tested strains; read-out: MIC, anti-microbial activities overall
Procedure: as §4

Row | Structure (SMILES) | MIC (A. baumannii ATCC 19606) [µg/mL] | MIC (E. coli ATCC 25925) [µg/mL] | MIC (S. aureus ATCC 25923) [µg/mL] | log Ks, polyC-polyG (polyC-polyG) | MIC (S. aureus MSSA) [µg/mL] | MIC (E. faecium VRE) [µg/mL] | Hypochromic effect H/%, polyA-polyU (polyA-polyU [1]) [%] | log Ks, polyA-polyU (polyA-polyU [1]) | log Ks [2] | ΔTm, polyA-polyU, r = 0.1 (polyA-polyU [4]) [°C] | ΔTm, polyA-polyU, r = 0.3 (polyA-polyU [4]) [°C] | MIC (P. aeruginosa ATCC 27853) [µg/mL] | log Ks ([5]; pH 7, per base) | MIC (K. pneumonia ATCC 700803) [µg/mL] | MIC (S. aureus MRSA) [µg/mL] | ΔTm, ctDNA, r = 0.5 (ctDNA) [°C] | ΔTm, ctDNA, r = 0.7 (ctDNA) [°C] | IC50 [6] [µM] | IC90 [6] [µM] | MIC (E. faecalis ATCC 29212) [µg/mL] | also measured
1 | N=C(N)c1ccc2[nH]c(-c3ccc(OCc4cn(Cc5ccccc5)nn4)cc3)nc2c1 [Compound 7d] | > 256 | 32 (≈ 75.6 µM) | 32 (≈ 75.6 µM) | 6.56 | 32 (≈ 75.6 µM) | 32 (≈ 75.6 µM) | 32.5 | 5.94 | 5.94 | 2.06 | 1.14 | 32 (≈ 75.6 µM) | 6.56 | 64 (≈ 151 µM) | 16 (≈ 37.8 µM) | 3.86 | 3.62 | 12.9 ± 0.2 | 18.2 ± 1 | 64 (≈ 151 µM) | MIC (P. aeruginosa ESBL): 32 µg/mL (≈ 75.6 µM); MIC (K. pneumoniae ESBL): 16 µg/mL (≈ 37.8 µM); ΔTm ([3]; error ±0.5, per base): 1.14 °C; MIC (E. coli ESBL): 16 µg/mL (≈ 37.8 µM); ΔTm, ctDNA, r = 0.3 (ctDNA): 3.12 °C; Hypochromic effect H/%, ctDNA (calf thymus ctDNA; UV–Vis titration, PBS, pH 7): 40.4%; log Ks, ctDNA (calf thymus ctDNA; PBS, pH 7): 5.78
2 | Cl.Cl.N=C(N)c1ccc2[nH]c(-c3ccc(OCc4cn(CSc5ccccc5)nn4)cc3)nc2c1 [Compound 7e, 2–(4-((1-((Phenylthio)methyl)-1H-1,2,3-triazol-4-yl)methoxy)phenyl)-1H-benz[d]imidazole-5-carboximidamide dihydrochloride] | > 256 | 32 | 32 | 5.89 | 128 | 64 | 31.7 | 6.20 | 6.20 | 0.39 | 1.11 | 64 | 5.89 | 128 | 32 | 2.62 | 2.66 | 10.2 ± 1.3 | 15.9 ± 0.4 | 128 | melting point: 173 to 176 °C; MIC (P. aeruginosa ESBL): 32 µg/mL; Hypochromic effect H/%, polyC-polyG (polyC-polyG): 5.79%; MIC (K. pneumoniae ESBL): 16 µg/mL; ΔTm ([3]; error ±0.5, biphasic, second midpoint 12.58, per base): 1.11 °C; ΔTm, polyA-polyU, r = 0.3, second melting midpoint (polyA-polyU [4]): 12.58^c °C; ΔTm, polyA-polyU, r = 0.5 (polyA-polyU [4]): 1.11 °C; ΔTm, polyA-polyU, r = 0.5, second melting midpoint (polyA-polyU [4]): 15.04^c °C; MIC (E. coli ESBL): 32 µg/mL; ΔTm, ctDNA, r = 0.3 (ctDNA): 2.19 °C; Hypochromic effect H/%, ctDNA (calf thymus ctDNA; UV–Vis titration, PBS, pH 7): 38.2%; log Ks, ctDNA (calf thymus ctDNA; PBS, pH 7): 5.33
3 | COc1ccc(-n2cc(COc3ccc(-c4nc5cc(C(=N)NC(C)C)ccc5[nH]4)cc3)nn2)cc1.Cl.Cl [Compound 8b, N-isopropyl-2–(4-((1–(4-methoxyphenyl)-1H-1,2,3-triazol-4-yl)methoxy)phenyl)-1H-benz[d]imidazole-5-carboximidamide dihydrochloride] | > 256 | 256 | 128 | 6.39 | 64 | 128 | 57.8 | 5.27 | 5.27 | 1.17 | 1.32 | > 256 | 6.39 | > 256 | 16 | 3.96 | 4.47 | 1.1 ± 0.3 | 3.5 ± 0.2 | 64 | melting point: 188 to 191 °C; Hypochromic effect H/%, polyC-polyG (polyC-polyG): 5.05%; ΔTm ([3]; error ±0.5, biphasic, second midpoint 6.38, per base): 1.32 °C; ΔTm, polyA-polyU, r = 0.3, second melting midpoint (polyA-polyU [4]): 6.38^c °C; ΔTm, polyA-polyU, r = 0.5 (polyA-polyU [4]): 1.56 °C; ΔTm, polyA-polyU, r = 0.5, second melting midpoint (polyA-polyU [4]): 8.49^c °C; IC50 [7]: > 300 µM; ΔTm, ctDNA, r = 0.3 (ctDNA): 4.03 °C; Hypochromic effect H/%, ctDNA (calf thymus ctDNA; UV–Vis titration, PBS, pH 7): 29.7%; log Ks, ctDNA (range r ≥ 0.1) (calf thymus ctDNA; footnote f: mixed binding mode, calculated in range r ≥ 0.1): 6.06
4 | c1ccc(-n2cc(COc3ccc(-c4nc5cc(C6=NCCN6)ccc5[nH]4)cc3)nn2)cc1 [Compound 9a] | > 256 | 256 (≈ 588 µM) | 128 (≈ 294 µM) | 6.21 | 128 (≈ 294 µM) | 128 (≈ 294 µM) | – | – | – | – | – | > 256 | – | > 256 | 128 (≈ 294 µM) | – | – | 7.9 ± 0.4 | 17.2 ± 1.2 | 128 (≈ 294 µM) | Hypochromic effect H/%, polyA-polyU (from experimental data) (polyA-polyU [1]; footnote e: calculated from experimental data): 32.7 ^e %; binding ([2]; pH 7, changes too small for accurate calculation, compound 14.8 µM): weak; log Ks ([5]; pH 7, n fixed, per base): 6.21; MIC [8]: ≥ 128 µg/mL; Hypochromic effect H/%, ctDNA (from experimental data) (calf thymus ctDNA; UV–Vis titration, PBS, pH 7, footnote e: calculated from experimental data): 25.7 ^e %
